Test results published in US7166598B2, “Piperazine derivatives” (Astellas Pharma Inc., priority 1998, dated 2007).

SMILES | melting point
COc1cc(C[C@@H]2CN(CCN3C[C@@H](C)O[C@@H](C)C3)CCN2C(=O)c2cc(C(F)(F)F)cc(C(F)(F)F)c2)ccc1F.Cl.Cl | 205 to 208 °C
Cc1ccc(C[C@@H]2CN(Cc3nsc(N)n3)CCN2C(=O)c2cc(C(F)(F)F)cc(C(F)(F)F)c2)cc1O.Cl.Cl | 177 to 182 °C
COC[C@@H]1CN(CCN2CCN(C(=O)c3cc(-n4cccc4)cc(C(F)(F)F)c3)[C@H](Cc3ccc(C)c(O)c3)C2)CCO1.Cl.Cl | 159 to 170 °C
COc1cc(C(=O)N2CCN(CCCc3cccnc3)C[C@H]2Cc2c[nH]c3ccccc23)cc(C(F)(F)F)c1.Cl.Cl | 135 to 145 °C
COc1cc(C(=O)N2CCN(CCN3CCc4ncccc4C3)C[C@H]2Cc2ccc(C)c(O)c2)cc(C(F)(F)F)c1.Cl.Cl.Cl | 192 to 208 °C
Cl.Cn1cc(CN2CCN(C(=O)c3cc(C(F)(F)F)cc(C(F)(F)F)c3)[C@H](Cc3ccc(F)c(O)c3)C2)cn1 | 160 to 170 °C
COc1cc(C(=O)N2CCN(Cc3cccnc3)C[C@H]2Cc2ccc(Cl)cc2)cc(C(F)(F)F)c1.Cl.Cl | 60 to 80 °C
Cl.Cn1cc(CN2CCN(C(=O)c3cc(C(F)(F)F)cc(C(F)(F)F)c3)[C@H](Cc3ccc(Cl)c(O)c3)C2)cn1 | 159 to 163 °C
CSc1cc(C(=O)N2CCN(CCN3CCc4ncccc4C3)C[C@H]2Cc2ccc(C(F)(F)F)cc2)cc(C(F)(F)F)c1.Cl.Cl | 190 to 210 °C
COc1cc(C(=O)N2CCN(CC#CCN3CCOCC3(C)C)C[C@H]2Cc2ccc(Cl)c(O)c2)cc(C(F)(F)F)c1.Cl.Cl | 187 to 195 °C
COC[C@@H]1CN(CCN2CCN(C(=O)c3cc(C)cc(C(F)(F)F)c3)[C@H](Cc3ccc(Cl)cc3)C2)CCO1.Cl.Cl | 148 to 151 °C
C[C@@H]1CN(CCN2CCN(C(=O)c3cc(Cl)cc(C(F)(F)F)c3)[C@H](Cc3ccc(Cl)cc3)C2)C[C@H](C)O1.Cl.Cl | 136.4 to 141 °C
COC[C@@H]1CN(CCN2CCN(C(=O)c3cc(SC)cc(C(F)(F)F)c3)[C@H](Cc3ccc(C)c(O)c3)C2)CCO1.Cl.Cl | 154 to 168 °C
COC[C@@H]1CN(CCN2CCN(C(=O)c3cc(C(F)(F)F)cc(C(F)(F)F)c3)[C@H](Cc3ccc(Cl)c(OC)c3)C2)CCO1.Cl.Cl | 145 to 149 °C
COC[C@@H]1CN(CCN2CCN(C(=O)c3cc(C(F)(F)F)cc(S(=O)(=O)N(C)C)c3)[C@H](Cc3ccc(C)c(O)c3)C2)CCO1.Cl.Cl | 153.5 to 160 °C
COc1cc(C(=O)N2CCN(Cc3cnn(C)c3)C[C@H]2Cc2ccc(F)cc2)cc(C(F)(F)F)c1.Cl | 225.6 to 228.4 °C
COc1cc(C(=O)N2CCN(CC#CCN3CCOCC3(C)C)C[C@H]2Cc2ccc3ccccc3c2)cc(C(F)(F)F)c1.Cl.Cl | 190 to 199 °C
COc1cc(C[C@@H]2CN(CCCc3cccnc3)CCN2C(=O)c2cc(C(F)(F)F)cc(C(F)(F)F)c2)ccc1F.Cl.Cl | 125 to 130 °C
COC[C@@H]1CN(CCN2CCN(C(=O)c3cc(-c4ccncc4)cc(C(F)(F)F)c3)[C@H](Cc3ccc(C)c(O)c3)C2)CCO1.Cl.Cl.Cl | 169 to 173 °C
CNc1cc(C(=O)N2CCN(CCN3CCc4ncccc4C3)C[C@H]2Cc2ccc(Cl)cc2)cc(C(F)(F)F)c1.Cl.Cl.Cl | 199 to 245 °C

SMILES | melting point
COC[C@@H]1CN(CCN2CCN(C(=O)c3cc(C(F)(F)F)cc(C(F)(F)F)c3)[C@H](Cc3ccc(F)c(O)c3)C2)CCO1.Cl.Cl | 156 to 168 °C
Cl.Cl.Cl.O=C(c1cc(C(F)(F)F)cc(C(F)(F)F)c1)N1CCN(CCN2CCc3ncccc3C2)C[C@H]1Cc1ccc(C(F)(F)F)cc1 | 174 to 180 °C
CNc1noc(CN2CCN(C(=O)c3cc(C(F)(F)F)cc(C(F)(F)F)c3)[C@H](Cc3ccc(C)c(O)c3)C2)n1.Cl.Cl | 145 to 160 °C
COc1cc(C(=O)N2CCN(CC#CCN3CCOCC3(C)C)C[C@H]2Cc2ccc(Cl)cc2)cc(C(F)(F)F)c1.Cl.Cl | 110 to 140 °C
COc1cc(C(=O)N2CCN(CCN3C[C@@H](C)O[C@@H](C)C3)C[C@H]2Cc2ccc(C(F)(F)F)cc2)cc(C(F)(F)F)c1.Cl.Cl | 139 to 151 °C
COC[C@@H]1CN(CCN2CCN(C(=O)c3cc(SC)cc(C(F)(F)F)c3)[C@H](Cc3ccc(Cl)cc3)C2)CCO1.Cl.Cl | 140 to 146 °C
COc1cc(C(=O)N2CCN(CCN3C[C@@H](C)O[C@@H](C)C3)C[C@H]2Cc2ccc(C(F)(F)F)c(OC)c2)cc(C(F)(F)F)c1.Cl.Cl | 125 to 135 °C
Cl.Cl.O=C(c1cc(C(F)(F)F)cc(C(F)(F)F)c1)N1CCN(CCCc2cccnc2)C[C@H]1Cc1ccc(Cl)c(O)c1 | 65 to 70 °C
COc1cc(C(=O)N2CCN(CCN3C[C@@H](C)O[C@@H](C)C3)C[C@H]2Cc2ccc3ccccc3c2)cc(C(F)(F)F)c1.Cl.Cl | 188 to 193 °C
Cc1ccc(CC2CN(CCCc3cccnc3)CCN2C(=O)c2cc(C(F)(F)F)cc(C(F)(F)F)c2)cc1O.Cl.Cl (stereo not drawn) [Example 8, 1-[3,5-bis(trifluoromethyl)benzoyl]-2-(3-hydroxy-4-methylbenzyl)-4-[3-(3-pyridyl)propyl]piperazine dihydrochloride] | 60 to 70 °C
C[C@@H]1CN(CCN2CCN(C(=O)c3cc(N(C)C)cc(C(F)(F)F)c3)[C@H](Cc3ccc(Cl)cc3)C2)C[C@H](C)O1.Cl.Cl | 148.2 to 153.3 °C
COC[C@@H]1CN(CCN2CCN(C(=O)c3cc(C(F)(F)F)cc(C(F)(F)F)c3)[C@H](Cc3ccc(F)c(OC)c3)C2)CCO1.Cl.Cl | 180 to 190 °C
COc1cc(C(=O)N2CCN(CC#CCN3CCOCC3(C)C)C[C@H]2Cc2ccc(C)c(O)c2)cc(C(F)(F)F)c1.Cl.Cl | 181 to 188 °C
COc1cc(C(=O)N2CCN(CCN3CCC(F)(F)CC3)C[C@H]2Cc2ccc(Cl)cc2)cc(C(F)(F)F)c1.Cl.Cl | 220 to 250 °C
Cc1ccc(CC2CN(CCN3C[C@H]4C[C@H]3C(C)(C)O4)CCN2C(=O)c2cc(C(F)(F)F)cc(C(F)(F)F)c2)cc1O.Cl.Cl (stereo partly drawn) | 173 to 185 °C
Cl.Cl.Cl.O=C(c1cc(-n2cccc2)cc(C(F)(F)F)c1)N1CCN(CCN2CCc3ncccc3C2)C[C@H]1Cc1ccc(Cl)cc1 | 184 to 191 °C
CSc1cc(C(=O)N2CCN(CCN3C[C@@H](C)O[C@@H](C)C3)C[C@H]2Cc2ccc(Cl)c(O)c2)cc(C(F)(F)F)c1.Cl.Cl | 162 to 178 °C
COc1cc(C(=O)N2CCN(CCN3C[C@@H](C)O[C@@H](C)C3)C[C@H]2Cc2ccc(Cl)c(O)c2)cc(C(F)(F)F)c1.Cl.Cl | 177 to 182 °C
COc1cc(C(=O)N2CCN(Cc3cccnc3)C[C@H]2Cc2ccc(F)cc2)cc(C(F)(F)F)c1.Cl.Cl | 81.4 to 84.3 °C
COC[C@@H]1CN(CC#CCN2CCN(C(=O)c3cc(C(F)(F)F)cc(C(F)(F)F)c3)[C@H](Cc3ccc(C)c(O)c3)C2)CCO1.Cl.Cl | 110 to 130 °C

SMILES | melting point
Cc1ccc(C[C@@H]2CN(CCc3cccnc3)CCN2C(=O)c2cc(C(F)(F)F)cc(C(F)(F)F)c2)cc1O.Cl.Cl | 90 to 120 °C
COC[C@@H]1C[C@@H](OC)CN1CCN1CCN(C(=O)c2cc(C(F)(F)F)cc(C(F)(F)F)c2)[C@H](Cc2ccc(Cl)c(O)c2)C1.Cl.Cl | 95 to 105 °C
COc1cc(C[C@@H]2CN(CCN3CCc4ncccc4C3)CCN2C(=O)c2cc(C(F)(F)F)cc(C(F)(F)F)c2)ccc1F.Cl.Cl.Cl | 175 to 185 °C
COC[C@@H]1CN(CCN2CCN(C(=O)c3cc(C(F)(F)F)cc(C(F)(F)F)c3)[C@H](Cc3ccc(OC)cc3)C2)CCO1.Cl.Cl | 146 to 149 °C
COC[C@@H]1CN(CCN2CCN(C(=O)c3cc(C(F)(F)F)cc(S(=O)(=O)C4CCCC4)c3)[C@H](Cc3ccc(Cl)cc3)C2)CCO1.Cl.Cl | > 230 °C
Cl.Cl.Cl.O=C(c1cc(C(F)(F)F)cc(C(F)(F)F)c1)N1CCN(CCN2CCc3ncccc3C2)C[C@H]1Cc1ccc(Cl)cc1 | 172 to 203 °C (dec.)
COC[C@@H]1COCCN1CCN1CCN(C(=O)c2cc(C(F)(F)F)cc(C(F)(F)F)c2)C(Cc2ccc(C)c(O)c2)C1.Cl.Cl (stereo partly drawn) | 167 to 172 °C
COc1cc(C(=O)N2CCN(Cc3cccnc3)C[C@H]2Cc2ccc3ccccc3c2)cc(C(F)(F)F)c1.Cl.Cl | 162 to 168 °C
COC[C@@H]1CN(CCN2CCN(C(=O)c3cc(-c4ccncc4)cc(C(F)(F)F)c3)[C@H](Cc3ccc(C(F)(F)F)cc3)C2)CCO1.Cl.Cl.Cl | 81 to 91 °C
C[C@@H]1CN(CCN2CCN(C(=O)c3cc(F)cc(C(F)(F)F)c3)[C@H](Cc3ccc(Cl)cc3)C2)C[C@H](C)O1.Cl.Cl | 80.1 to 82.5 °C
COc1cc(C(=O)N2CCN(Cc3cccnc3)C[C@H]2Cc2ccc(C(F)(F)F)cc2)cc(C(F)(F)F)c1.Cl.Cl | 101 to 108 °C
COc1cc(C[C@@H]2CN(CC#CCN3CCOCC3(C)C)CCN2C(=O)c2cc(C(F)(F)F)cc(C(F)(F)F)c2)ccc1F.Cl.Cl | 125 to 130 °C
COc1cc(C(=O)N2CCN(CCN3C[C@@H](C)O[C@@H](C)C3)C[C@H]2Cc2ccc(F)cc2)cc(C(F)(F)F)c1.Cl.Cl | 70.3 to 85.2 °C
C[C@@H]1CN(CCN2CCN(C(=O)c3cc(Cl)cc(C(F)(F)F)c3)[C@H](Cc3ccc(Cl)c(O)c3)C2)C[C@H](C)O1.Cl.Cl | 196 to 199 °C
Cc1ccc(CC2CN(C/C=C/c3cccnc3)CCN2C(=O)c2cc(C(F)(F)F)cc(C(F)(F)F)c2)cc1O.Cl.Cl (stereo not drawn) | 60 to 80 °C
COC[C@@H]1C[C@H](COC)CN(CCN2CCN(C(=O)c3cc(C(F)(F)F)cc(C(F)(F)F)c3)[C@H](Cc3ccc(F)c(OC)c3)C2)C1.Cl.Cl | 150 to 156 °C
COc1cc(C(=O)N2CCN(CCN3CCC(F)(F)CC3)C[C@H]2Cc2ccc3ccccc3c2)cc(C(F)(F)F)c1.Cl.Cl | 243 to 260 °C
C[C@@H]1CN(CCN2CCN(C(=O)c3cc(Cl)cc(Cl)c3)[C@H](Cc3ccc(Cl)cc3)C2)C[C@H](C)O1.Cl.Cl | 140.1 to 143.8 °C
Cc1ccc(C[C@@H]2CN(C/C=C\c3cccnc3)CCN2C(=O)c2cc(C(F)(F)F)cc(C(F)(F)F)c2)cc1O.Cl.Cl | 85 to 130 °C
COc1cc(C(=O)N2CCN(CC#CCN3CCOCC3(C)C)C[C@H]2Cc2c[nH]c3ccccc23)cc(C(F)(F)F)c1.Cl.Cl | 190 to 200 °C
